Data taken from US20110151020A1, “ACTIVE SUBSTANCE COMBINATION WITH GEMCITABINE FOR THE TREATMENT OF EPITHELIAL CANCER” (priority 2008, published 2011).
“Also recorded” adds a separate entry of the source. Where two headings read alike, the source gives them in different places.

Tests used:
[1] = test system: CD133+ cancer stem cells in tumour cell lines; assay: CD133 content by flow cytometry in tumour cell lines after 48 hours of in-vitro treatment; format: cell-based, human
Protocol: As a first step the content of cancer stem cells (measured as “CD 133-content”) in the whole population of tumour cells was measured by flow cytometry (FIGS. 1A-1C).
As a first step the content of cancer stem cells (measured as “CD 133-content”) within the entire tumour cell population was measured by flow cytometry (FIGS. 10A-10C).

pancreatic CSC spheres = assay: CSC-enriched tumour sphere assay; format: cell-based, human; conditions: ultra low adhesion 6-well plates
Protocol: First, pancreatic CSC were clonally expanded as CSC-enriched spheres (FIGS. 18C1-18C5). Floating spheres were treated in ultra low adhesion 6-well plates. After completion of the treatment, five randomly selected high-power fields were analyzed.
(§1) Human pancreatic cancer cell line. The highly metastatic human pancreatic cell line L3.6pl was maintained in DMEM medium (Invitrogen, Karlsruhe, Germany) with 12% Fetal Calf Serum (Biochrom, Berlin, Germany), Glutamax (Invitrogen), non-essential amino acids, and vitamins (all from PAN, Aidenbach, Germany) (Hermann et al., 2007, supra). Cultures were kept no longer than 4 weeks after recovery from frozen stocks. CSC spheres were cultured in DMEM-F12 supplemented with B27 (Gibco, Karlsruhe, Germany) and FGF-2 (PeproTech EC, London, United Kingdom) (Hermann et al., 2007, supra).

CSC population = conditions: fraction of original population remaining; cited from earlier work
[2] = test system: L3.6pl pancreatic cancer cells; assay: Tumorigenicity after in vitro pre-treatment and orthotopic implantation; format: in vivo, mice
Protocol: After 96 hours of pretreatment, the remaining viable cells were orthotopically implanted into the pancreas of mice, which received no further treatment in vivo.
Cultivated pancreatic cancer cells were exposed to either Gemcitabine alone representing clinical standard therapy, SB431542 alone, or a combination of Gemcitabine and SB431542 in the above given respective concentrations. After 96 hours of pretreatment, the remaining viable cells were orthotopically implanted into the pancreas of mice, which received no further treatment in vivo.
A prerequisite of CSC is their ability to form tumours in secondary recipients. Due to the limited number of cancer (stem) cells that can be obtained from primary tissues, it is virtually impossible to reproducibly perform in vivo treatment experiments with fresh patient-derived cells. Therefore, all subsequent in vivo experiments were performed with the established L3.6pl pancreatic cancer cells. The design of the experiment is illustrated in FIG. 20A. […] After 4 days of pretreatment, the surviving cells were orthotopically implanted into the pancreas, which received no further in vivo treatment. Tumorigenicity was first determined by PET scans on day 30 (FIGS. 20B, 20C; left panel) and by final macroscopic and microscopic histological evaluation on day 35 (FIGS. 20B, 20C; right panel).
Animals and Orthotopic Implantation of Tumour Cells. Single-cell suspensions were orthotopically implanted into the pancreas of female NMRI nu/nu mice (Janvier, Le Genest-Saint-Isle, France) (Hermann et al., 2007, supra). Size and weight of the pancreatic tumours were monitored.
(§2) In vitro treatment of pancreatic cancer cells. […] For the evaluation of the in vivo tumorigenicity, […] L3.6pl cells were pretreated with the respective regimen and the remaining viable cells were orthotopically implanted into the pancreas of nude mice and evaluated on day 35. For the systemic infusion assay, cells were labelled with the Qtracker 800 labelling kit (Invitrogen) according to the manufacturer's instructions, and 5×10^5 cells were injected intravenously into mice. After 4 weeks, explanted lungs were scanned for metastases with a near-infrared imaging platform (Odyssey, Li-cor, Lincoln, Nebr.). Positive signals were verified by histology (H&E staining).

[3] = test system: CD133+ pancreatic cancer stem cells (L3.6pl cells); assay: CD133 content by flow cytometry in L3.6pl pancreatic cancer cells; format: cell-based, human; conditions: for CD133 content of L3.6pl cells: Example 4.2, inhibitor alone or with Gemcitabine
Protocol: In this experiment, potentially effective substances for the targeted elimination of CD133^+ pancreatic cancer stem cells (CSC) were screened by means of flow cytometry following 48 hours of therapy. […] As a Gemcitabine concentration of 100 ng/ml was the lowest concentration capable of achieving a strong relative enrichment for CD133^+ cells through depletion of CD133^− cells, this concentration was chosen for subsequent experiments.
as §1
Cytometry. Pancreatic CSC were identified by CD133/1-APC or CD133-PE (Miltenyi, Bergisch-Gladbach, Germany) (Hermann et al., 2007, supra). Side population experiments were performed as described by Goodell et al. (1996) (see Goodell et al., 1996, J Exp Med 183, 1797-1806) and cells were identified by exclusion of the vital dye Hoechst 33342. To detect activation of the PI3K/Akt/mTOR pathway by means of the phosphorylation status of the s6 ribosomal protein (s6rp), cells cultivated with standard medium were stained with a rabbit anti-phospho-S6 ribosomal protein antibody (Cell Signalling Technology, Danvers, Mass.).
as §2
Using SB431542, a specific inhibitor of the receptors for Nodal and Activin, ALK-4 and -7 respectively, it was investigated whether the content of the CD133(+) population is affected by inhibition of Activin/Nodal signaling. As mutations affecting the TGF-superfamily pathway are very common in pancreatic neoplasms, pancreatic cell lines harboring different mutations in this pathway were screened (Table 1).

CD133-positive cells = assay: Cell cycle / apoptosis of CD133-positive cells (BrDU flow kit); format: cell-based
Description: As the precise fate of CD133-positive cells during treatment with antagonists of Activin or Nodal was to be assessed, the cell cycle of these cells was investigated using a BrDU flow kit (see FIGS. 26A-26G).

Alk4/7 = assay: Smad2 phosphorylation after recombinant Nodal; format: cell-based
BxPC3 cells = assay: CD133 content by flow cytometry in BxPC3 cells; format: cell-based, human
Description: (§3) Using SB431542, a specific inhibitor of the receptors for Nodal and Activin, ALK-4 and -7 respectively, it was investigated whether the content of the CD133(+) population is affected by inhibition of Activin/Nodal signaling. As mutations affecting the TGF-superfamily pathway are very common in pancreatic neoplasms, pancreatic cell lines harboring different mutations in this pathway were screened (Table 1). […] Without being bound thereto, this indicates a Nodal/[…] mediated pathway being independent from SMAD4 as an underlying mechanism.

[4] = test system: primary human pancreatic cancer tissue; assay: In vivo treatment of implanted patient pancreatic tumor tissue with gemcitabine plus SB431542; set-up: species or system mice; conditions: mouse, in vivo
Protocol: FIG. 33: In vivo treatment with the Alk4/7 inhibitor SB431542. This illustrates Nodal/Activin inhibition to eliminate primary human pancreatic CSC in vivo. Tumor tissue from patient with pancreatic cancer was implanted into immunocompromised mice. Treatment was started on day 7 after implantation. Mice were randomized to gemcitabine alone or gemcitabine plus SB431542. Tumor growth was assessed on day 28.

MiaPaca cells = assay: CD133 content by flow cytometry in MiaPaCa cells; format: cell-based, human
Description: as §3

[5] = test system: primary human pancreatic cancer cells; assay: Sphere formation in primary human pancreatic cancer cells; format: cell-based
CD133 positive CSC = assay: CD133 positive population after extracellular antagonists of Nodal and Activin A; format: cell-based
Description: Furthermore, cells in culture were subjected to extracellular antagonists of Nodal (Lefty) and Activin A (Follistatin) to see whether both components are functionally relevant for the maintenance of the CD133 positive CSC compartment.

[6] = test system: sphere derived cells (185s); assay: Soft agar colony formation assay; format: cell-based; conditions: soft agar assay 14d
Description: FIGS. 31A-D: show a Gain of function by Nodal stimulation—Sphere derived cells (185s) bear a higher colony forming capacity as compared to adherent cells (185) as evidence for an enrichment in cancer stem cells (in a soft agar assay 14d).

[7] = 5 μM SB431542, 100 ng/ml Gemcitabine, ALK5 inhibitor SB-505124

Molecule: CC1=C2C[C@H]3[C@@H](CC=C4C[C@@H](O)CC[C@@]43C)[C@@H]2CC[C@]12O[C@@H]1C[C@H](C)CN[C@H]1[C@H]2C [Cyclopamine, 11-deoxojervine]
- content of cancer stem cells (CD 133-content) ([1]; 100 ng/ml Gemcitabine, 100 ng/ml Rapamycin, 10 μM Cyclopamine, separately or triple combination): None of the investigated molecules (Gemcitabine, Rapamycin and Cyclopamine) was capable of significantly reducing
- tumour spheres / CD133+ cells in CSC-enriched spheres (pancreatic CSC spheres): reduction of tumour spheres
- reduction of the original CSC population (aldehyde dehydrogenase marker) (CSC population): ⅓
- tumour take rate / tumorigenicity ([2]; 4 days of pretreatment, PET day 30, histology day 35): neither Cyclopamine nor Rapamycin monotherapy significantly affected tumour take rates
- CD133+ cell content ([3]; 48 hours of therapy, Gemcitabine 100 ng/ml): moderate, albeit significant decrease
- CD133 content ([3]; inhibitor alone, CUR199691 10 μM): 55%

Molecule: NC(=O)c1ccc(-c2nc(-c3ccc4c(c3)OCO4)c(-c3ccccn3)[nH]2)cc1 [SB431542]
- content of cancer stem cells (CD 133-content) [1, 7]: significant reduction
- induction of apoptosis in CD133-positive cells (CD133-positive cells): modest induction of apoptosis
- tumorigenicity after in vitro pre-treatment ([2]; 96 hours pretreatment, 100 ng/ml Gemcitabine, 5 μM SB431542): close to no effect; also recorded: did not affect the tumorigenicity
- phosphorylation of Smad2 (pSmad2) (Alk4/7): abrogated this increase in pSmad2
- CD133 content of BxPC3 cells (BxPC3 cells): no response
- body weight [4]: lack of change
- severe side effects [4]: did not result in severe side effects
- white blood cell counts (WBC) [4]: lack of change
- CD133 content 24 hours after withdrawal of therapy ([3]; 24 hours after withdrawal): already started to approach control level
- CD133 content 48 h after withdrawal of therapy ([3]; 48 h after withdrawal): enrichment for CD133 compared to base level
- CD133 content of L3.6pl cells [3]: decrease; also recorded: drastically reduced
- CD133(+) sub-population of MiaPaca cells (MiaPaca cells): decrease
- cell viability (dapi staining) [5]: did not affect cell viability
- sphere formation [5]: in a dose-dependent manner reduced sphere formation

Molecule: Cc1cccc(-c2[nH]c(C(C)(C)C)nc2-c2ccc3c(c2)OCO3)n1 [SB505124]
- content of cancer stem cells (CD 133-content) [1, 7]: did not lead to significant reduction
- CD133 content of L3.6pl cells [3]: neither alone nor in combination with Gemcitabine an effect

B1: Folistatin: single chain glycoprotein, inhibitor of Activin signaling (protein, UniProt P19883 30-344, looked up)
Follistatin: GNCWLRQAKNGRCQVLYKTELSKEECCSTGRLSTSWTEEDVNDNTLFKWMIFNGGAPNCIPCKETCENVDCGPGKKCRMNKKNKPRCVCAPDCSNITWKGPVCGLDGKTYRNECALLKARCKEQPELEVQYQGRCKKTCRDVFCPGSSTCVVDQTNNAYCVTCNRICPEPASSEQYLCGNDGVTYSSACHLRKATCLLGRSIGLAYEGKCIKAKSCEDIQCTGGKKCLWDFKVGRGRCSLCDELCPDSKSDEPVCASDNATYASECAMKEAACSSGVLLEVKHSGSCNSISEDTEEEEEDEDQDYSFPISSILEW
- CD133 positive CSC population (CD133 positive CSC): reduction of CD133 positive CSC that was similar to the reduction seen for Lefty
- CD133 positive CSC population (CD133 positive CSC; listed as folistatin): reduction of CD133 positive cancer stem cells

B2: recombinant Nodal: recombinant Nodal, member of the TGF-β superfamily, used as stimulus (protein, UniProt Q96S42 238-347, looked up)
Nodal homolog: HHLPDRSQLCRKVKFQVDFNLIGWGSWIIYPKQYNAYRCEGECPNPVGEEFHPTNHAYIQSLLKRYQPHRVPSTCCAPVKTKPLSMLYVDNGRVLLDHHKDMIVEECGCL
- phosphorylation of Smad2 (pSmad2) (Alk4/7): increased phosphorylation of downstream Smad2
- colony formation [6]: further increase in colony formation
